Measurements as given in patent US10294202B2, “Pyrrolidinones as herbicides” (FMC Corporation, priority 2013, dated 2019).

Key:
[1] = system: galium; assay: Test A postemergence herbicide test; type: in vivo, Galium aparine
Method in brief: (§1)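 Young potted plants in a loam–sand mix, one- to two-leaf stage and 2–10 cm tall, receive the test chemical postemergence and stay in a greenhouse for approximately 10 days. Injury is then judged by eye against untreated plants, scored 0 (none) to 100 (complete control).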

[2] = system: ragweed; assay: Test A pre-/postemergence herbicide test; type: in vivo, Ambrosia elatior
Method in brief: (§2)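 Greenhouse pot test with pre- and postemergence application of surfactant-containing solvent formulations. Postemergence plants were 2–10 cm, one- to two-leaf stage. Response scored visually after ~10 days, 0 (no effect) to 100 (complete control).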

[3] = system: rice; assay: Test B flooded paddy test; type: in vivo, Oryza sativa; conditions: 500 g ai/ha, Flood; scale of 0 to 100 where 0 is no effect and 100 is complete control
Method in brief: (§3)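 Visual ratings from 0, meaning no effect, up to 100, meaning complete control, were made by comparison with untreated controls 13 to 15 days after treatment. Test compounds went straight into floodwater standing 3 cm over the soil of pots holding 2-leaf seedlings.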

[4] = system: kochia; assay: Test A pre-/postemergence herbicide test; type: in vivo, Kochia scoparia
Method in brief: as §2

[5] = system: ducksalad; assay: Test B flooded paddy test; type: in vivo, Heteranthera limosa; conditions: 500 g ai/ha, Flood; scale of 0 to 100 where 0 is no effect and 100 is complete control
Method in brief: as §3

[6] = system: ryegrass, Italian; assay: Test A pre-/postemergence herbicide test; type: in vivo, Lolium multiflorum
Method in brief: as §2

[7] = system: wheat; assay: Test A pre-/postemergence herbicide test; type: in vivo, Triticum aestivum; conditions: Postemergence
Method in brief: as §2

[8] = system: giant foxtail; assay: Test A pre-/postemergence herbicide test; type: in vivo, Setaria faberii
Method in brief: as §2

[9] = system: blackgrass; assay: Test A postemergence herbicide test; type: in vivo, Alopecurus myosuroides
Method in brief: as §1

[10] = system: sedge, umbrella; assay: Test B flooded paddy test; type: in vivo, Cyperus difformis; conditions: 500 g ai/ha, Flood; scale of 0 to 100 where 0 is no effect and 100 is complete control
Method in brief: as §3

[11] = system: barnyardgrass; assay: Test A pre-/postemergence herbicide test; type: in vivo, Echinochloa crus-galli
Method in brief: as §2

[12] = system: corn; assay: Test A pre-/postemergence herbicide test; type: in vivo, Zea mays; conditions: Postemergence
Method in brief: as §2

[13] = system: pigweed; assay: Test A pre-/postemergence herbicide test; type: in vivo, Amaranthus retroflexus
Method in brief: as §2

[14] = system: barnyardgrass; assay: Test B flooded paddy test; type: in vivo, Echinochloa crus-galli; conditions: 500 g ai/ha, Flood; scale of 0 to 100 where 0 is no effect and 100 is complete control
Method in brief: as §3

[15] = 125 g ai/ha, visual rating on 0 to 100 scale (0 no effect, 100 complete control), approx. 10 days
[16] = 500 g ai/ha, 0 to 100 scale (0 no effect, 100 complete control)
[17] = Postemergence, 125 g ai/ha, visual rating on 0 to 100 scale (0 no effect, 100 complete control), approx. 10 days
[18] = Postemergence, 500 g ai/ha, 0 to 100 scale (0 no effect, 100 complete control)
[19] = Preemergence, 125 g ai/ha, 0 to 100 scale where 0 is no effect and 100 is complete control
[20] = Preemergence, 500 g ai/ha, visual rating on 0 to 100 scale (0 no effect, 100 complete control)

Row | SMILES | Plant response rating, Galium [1, 15] | Plant response rating, Galium [1, 16] | Plant response rating, Ragweed [2, 17] | Plant response rating, Ragweed [2, 18] | Plant response rating, Ragweed [2, 19] | Ragweed plant response rating [2, 20] | Plant response rating, Rice [3] | Plant response rating, Kochia [4, 17] | Plant response rating, Kochia [4, 18] | Plant response rating, Kochia [4, 19] | Kochia plant response rating [4, 20] | Plant response rating, Ducksalad [5] | Plant response rating, Ryegrass, Italian [6, 17] | Plant response rating, Ryegrass, Italian [6, 18] | Plant response rating, Ryegrass, Italian [6, 19] | Ryegrass, Italian plant response rating [6, 20] | Plant response rating, Wheat [7, 15] | Plant response rating, Wheat [7, 16] | Plant response rating, Foxtail, Giant [8, 17] | Plant response rating, Foxtail, Giant [8, 18] | further results
1 | O=C1NCC(c2cccc(C(F)(F)F)c2)C1C(=O)Nc1cccc(C(F)(F)F)c1 (stereo not drawn) [Compound 313] | 0 | 0 | 0 | 0 | 0 | 0 | 0 | 0 | 0 | 0 | 0 | 0 | 0 | 0 | 0 | 0 | 0 | 0 | 40 | 70 | Plant response rating, Foxtail, Giant [8, 19]: 30; Foxtail, Giant plant response rating [8, 20]: 80; Plant response rating, Blackgrass [9, 15]: 0; Plant response rating, Blackgrass [9, 16]: 0; Plant response rating, Sedge, Umbrella [10]: 0; Plant response rating, Barnyardgrass [11, 17]: 20; Plant response rating, Barnyardgrass [11, 18]: 80; Plant response rating, Barnyardgrass [11, 19]: 50; Barnyardgrass plant response rating [11, 20]: 80; Plant response rating, Corn [12, 15]: 0; Plant response rating, Corn [12, 16]: 0; Plant response rating, Pigweed [13, 17]: 0; Plant response rating, Pigweed [13, 18]: 0; Plant response rating, Pigweed [13, 19]: 0; Pigweed plant response rating [13, 20]: 0; Plant response rating, Barnyardgrass [14]: 60
2 | O=C1NCC(c2cccc(I)c2)C1C(=O)Nc1ccccc1C(F)(F)F (stereo not drawn) [Compound 328] | 20 | 50 | 0 | 0 | 0 | 0 | 0 | 0 | 20 | 0 | 20 | 35 | 0 | 20 | 0 | 40 | 0 | 0 | 70 | 80 | Plant response rating, Foxtail, Giant [8, 19]: 80; Foxtail, Giant plant response rating [8, 20]: 90; Plant response rating, Blackgrass [9, 15]: 30; Plant response rating, Blackgrass [9, 16]: 40; Plant response rating, Sedge, Umbrella [10]: 0; Plant response rating, Barnyardgrass [11, 17]: 30; Plant response rating, Barnyardgrass [11, 18]: 80; Plant response rating, Barnyardgrass [11, 19]: 40; Barnyardgrass plant response rating [11, 20]: 80; Plant response rating, Corn [12, 15]: 0; Plant response rating, Corn [12, 16]: 0; Plant response rating, Pigweed [13, 17]: 0; Plant response rating, Pigweed [13, 18]: 0; Plant response rating, Pigweed [13, 19]: 0; Pigweed plant response rating [13, 20]: 0; Plant response rating, Barnyardgrass [14]: 0
3 | O=C1NCC(c2cccc(-n3ccc(C(F)(F)F)n3)c2)C1C(=O)Nc1ccccc1C(F)(F)F (stereo not drawn) [Compound 329] | 0 | 0 | 0 | 0 | 0 | 0 | 0 | 0 | 0 | 0 | 0 | 0 | 0 | 0 | 0 | 0 | 0 | 0 | 0 | 30 | Plant response rating, Foxtail, Giant [8, 19]: 0; Foxtail, Giant plant response rating [8, 20]: 60; Plant response rating, Blackgrass [9, 15]: 0; Plant response rating, Blackgrass [9, 16]: 0; Plant response rating, Sedge, Umbrella [10]: 0; Plant response rating, Barnyardgrass [11, 17]: 0; Plant response rating, Barnyardgrass [11, 18]: 0; Plant response rating, Barnyardgrass [11, 19]: 0; Barnyardgrass plant response rating [11, 20]: 0; Plant response rating, Corn [12, 15]: 0; Plant response rating, Corn [12, 16]: 0; Plant response rating, Pigweed [13, 17]: 0; Plant response rating, Pigweed [13, 18]: 0; Plant response rating, Pigweed [13, 19]: 0; Pigweed plant response rating [13, 20]: 0; Plant response rating, Barnyardgrass [14]: 0
